Data from US20240262822A1, “WDR5 INHIBITORS AND MODULATORS” (Vanderbilt University, priority 2021, published 2024).
Where two headings read alike, the source gives them in different places.

Legend:
WDR5 = target: T1, WDR5 (Homo sapiens, UniProt P61964); assay: Time Resolved-Fluorescence Energy Transfer (TR-FRET) competition assay, displacement of 10mer-Thr-FAM probe from His-tagged WDR5; format: binding; conditions: WDR5-His tag 2 nM, 10mer-Thr-FAM 150 nM, 60 minutes at room temperature
T1 construct: WDR5-His Tag (A23, residues 24-334) is expressed and purified in our lab; made in house
Outline: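 Competitive TR-FRET using 2 nM His-tagged WDR5 (residues 24-334), 1 nM Tb-anti-His antibody and 150 nM 10mer-Thr-FAM probe; compounds in a 10-point, 5-fold series from 5 μM, ≤1% DMSO. Incubated 60 min at room temperature in PBS with 300 mM NaCl, 0.5 mM TCEP, 0.1% CHAPS, pH 7.2; 520/495 nm emission gave IC50, converted to Ki by the Wang equation.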

[1] = test system: MV4:11 human cancer cell lines; assay: Cellular viability / anti-proliferative activity, CellTiter-Glo, 5 day protocol; format: cell-based; conditions: Homo sapiens, MV4-11, 120 h, 5 day incubation
Outline: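 MV-4-11 cells in IMDM/10% FBS, 200 cells per well, exposed to 22-point 2-fold dilutions from 30 μM top (0.3% DMSO) for 5 days. Viability by CellTiter-Glo luminescence; GI50 from sigmoidal dose-response fit, mean of at least two replicates.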

[2] = read-out: Ki for additional WDR5 inhibitor compounds for Inhibition of WDR5 by TR-FRET assay
[3] = MV4;11 cells, read-out: GI50 for additional WDR5 inhibitor compounds on cellular proliferation of MV4;11 human cancer cell lines
[4] = read-out: Ki for Exemplified Compounds for Inhibition of WDR5 by TR-FRET assay
[5] = MV4:11 cells, read-out: GI50 for representative compounds on cellular proliferation of MV4:11 human cancer cell lines

Row | Structure (SMILES) | Ki (WDR5; [2]) [nM] | GI50 [1, 3] [nM] | Ki (WDR5; [4]) [nM] | GI50 [1, 5] [nM]
1 | COc1cc(C(=O)Nc2cn[nH]c2)c2nc(C)cc(N3CCc4c(cc(Cn5ccnc5)cc4-c4cn(C)nc4C(F)(F)F)C3=O)c2c1 [Compound B-201] | 0.023 | 23 |  | 
2 | COc1cc2nc(C)nc(N3CCc4c(cc(Cn5ccnc5)cc4-c4cc(C(F)(F)F)nn4C)C3=O)c2cc1OC [Example 61, 7-((1H-Imidazol-1-yl)methyl)-2-(6,7-dimethoxy-2-methylquinazolin-4-yl)-5-(1-methyl-3-(trifluoromethyl)-1H-pyrazol-5-yl)-3,4-dihydroisoquinolin-1(2H)-one] |  |  | 0.031 | 128
3 | COc1cc2nc(C3CC3)nc(N3CCc4c(cc(Cn5ccnc5)cc4-c4cn(C)nc4C(F)(F)F)C3=O)c2cc1OC [Example 64, 7-((1H-Imidazol-1-yl)methyl)-2-(2-cyclopropyl-6,7-dimethoxyquinazolin-4-yl)-5-(1-methyl-3-(trifluoromethyl)-1H-pyrazol-4-yl)-3,4-dihydroisoquinolin-1(2H)-one] |  |  | < 0.02 | < 20
4 | CCc1cnc2c(c1)[C@@H](N1CCc3c(cc(Cn4ccnc4)cc3-c3cn(C)nc3C(F)(F)F)C1=O)CCO2 [Example 11, (S)-7-((1H-Imidazol-1-yl)methyl)-2-(6-ethyl-3,4-dihydro-2H-pyrano[2,3-b]pyridin-4-yl)-5-(1-methyl-3-(trifluoromethyl)-1H-pyrazol-4-yl)-3,4-dihydroisoquinolin-1(2H)-one] |  |  | < 0.02 | < 20
5 | COc1ccc2nccc(N3CCc4c(cc(Cn5ccnc5)cc4-c4cn(C)nc4C(F)(F)F)C3=O)c2n1 [Example 17, 7-((1H-Imidazol-1-yl)methyl)-2-(6-methoxy-1,5-naphthyridin-4-yl)-5-(1-methyl-3-(trifluoromethyl)-1H-pyrazol-4-yl)-3,4-dihydroisoquinolin-1(2H)-one] |  |  | 0.03 | 362
6 | CNc1nc(N2CCc3c(cc(Cn4ccnc4)cc3-c3cn(C)nc3C(F)(F)F)C2=O)c2cc(OC)c(OC)cc2n1 [Example 57, 7-((1H-Imidazol-1-yl)methyl)-2-(6,7-dimethoxy-2-(methylamino)quinazolin-4-yl)-5-(1-methyl-3-(trifluoromethyl)-1H-pyrazol-4-yl)-3,4-dihydroisoquinolin-1(2H)-one] |  |  | 0.023 | 24
7 | CCc1cc(OC)c2ncnc(N3CCc4c(cc(Cn5ccnc5)cc4-c4cn(C)nc4C(F)(F)F)C3=O)c2c1 [Example 27, 7-((1H-imidazol-1-yl)methyl)-2-(6-ethyl-8-methoxyquinazolin-4-yl)-5-(1-methyl-3-(trifluoromethyl)-1H-pyrazol-4-yl)-3,4-dihydroisoquinolin-1(2H)-one] |  |  | < 0.02 | < 20
8 | CCc1cc2c(N3CCc4c(cc(Cn5ccnc5)cc4-c4cn(C)nc4C(F)(F)F)C3=O)ccnc2c(COC)n1 [Example 52, 7-((1H-Imidazol-1-yl)methyl)-2-(6-ethyl-8-(methoxymethyl)-1,7-naphthyridin-4-yl)-5-(1-methyl-3-(trifluoromethyl)-1H-pyrazol-4-yl)-3,4-dihydroisoquinolin-1(2H)-one] |  |  | 0.03 | 80
9 | CCc1cc2c(N3CCc4c(cc(Cn5ccnc5)cc4-c4cn(C)nc4C(F)(F)F)C3=O)ccnc2c(C(=O)NC)n1 [Example 20, 4-(7-((1H-Imidazol-1-yl)methyl)-5-(1-methyl-3-(trifluoromethyl)-1H-pyrazol-4-yl)-1-oxo-3,4-dihydroisoquinolin-2(1H)-yl)-6-ethyl-N-methyl-1,7-naphthyridine-8-carboxamide] |  |  | < 0.02 | 290
10 | COCCOc1cc2ncnc(N3CCc4c(cc(Cn5ccnc5)cc4-c4cn(C)nc4C(F)(F)F)C3=O)c2cc1OC [Example 25, 7-((1H-Imidazol-1-yl)methyl)-2-(6-methoxy-7-(2-methoxyethoxy)quinazolin-4-yl)-5-(1-methyl-3-(trifluoromethyl)-1H-pyrazol-4-yl)-3,4-dihydroisoquinolin-1(2H)-one] |  |  | 0.036 | 310
11 | CNc1cc2nc(C)nc(N3CCc4c(cc(Cn5ccnc5)cc4-c4cn(C)nc4C(F)(F)F)C3=O)c2cc1OC [Example 55, 7-((1H-Imidazol-1-yl)methyl)-2-(6-methoxy-2-methyl-7-(methylamino)quinazolin-4-yl)-5-(1-methyl-3-(trifluoromethyl)-1H-pyrazol-4-yl)-3,4-dihydroisoquinolin-1(2H)-one] |  |  | < 0.02 | 47
12 | CCN(C)c1nc(N2CCc3c(cc(Cn4ccnc4)cc3-c3cn(C)nc3C(F)(F)F)C2=O)c2cc(OC)c(OC)cc2n1 [Example 62, 7-((1H-Imidazol-1-yl)methyl)-2-(2-(ethyl(methyl)amino)-6,7-dimethoxyquinazolin-4-yl)-5-(1-methyl-3-(trifluoromethyl)-1H-pyrazol-4-yl)-3,4-dihydroisoquinolin-1(2H)-one] |  |  | < 0.02 | 29
13 | CCc1cc(C(=O)NC)c2nccc(N3CCc4c(cc(Cn5ccnc5C)cc4-c4cn(C)nc4C(F)(F)F)C3=O)c2c1 [Example 5, 6-Ethyl-N-methyl-4-(7-((2-methyl-1H-imidazol-1-yl)methyl)-5-(1-methyl-3-(trifluoromethyl)-1H-pyrazol-4-yl)-1-oxo-3,4-dihydroisoquinolin-2(1H)-yl)quinoline-8-carboxamide] |  |  | < 0.02 | < 20
14 | CCc1cc(OC)c2nc(C)nc(N3CCc4c(cc(Cn5ccnc5)cc4-c4cn(C)nc4C(F)(F)F)C3=O)c2c1 [Example 51, 7-((1H-Imidazol-1-yl)methyl)-2-(6-ethyl-8-methoxy-2-methylquinazolin-4-yl)-5-(1-methyl-3-(trifluoromethyl)-1H-pyrazol-4-yl)-3,4-dihydroisoquinolin-1(2H)-one] |  |  | 0.022 | < 20
15 | COc1cc2nc(C3CCOCC3)nc(N3CCc4c(cc(Cn5ccnc5)cc4-c4cn(C)nc4C(F)(F)F)C3=O)c2cc1OC [Example 67, 7-((1H-Imidazol-1-yl)methyl)-2-(6,7-dimethoxy-2-(tetrahydro-2H-pyran-4-yl)quinazolin-4-yl)-5-(1-methyl-3-(trifluoromethyl)-1H-pyrazol-4-yl)-3,4-dihydroisoquinolin-1(2H)-one] |  |  | 0.025 | < 20
16 | COc1cc(OC)c2ncnc(N3CCc4c(cc(Cn5ccnc5)cc4-c4cn(C)nc4C(F)(F)F)C3=O)c2c1 [Example 50, 7-((1H-Imidazol-1-yl)methyl)-2-(6,8-dimethoxyquinazolin-4-yl)-5-(1-methyl-3-(trifluoromethyl)-1H-pyrazol-4-yl)-3,4-dihydroisoquinolin-1(2H)-one] |  |  | 0.022 | < 20
17 | COc1cc2ncnc(N3CCc4c(cc(Cn5ccnc5)cc4-c4cn(C)nc4C(F)(F)F)C3=O)c2cc1OC [Example 24, 7-((1H-Imidazol-1-yl)methyl)-2-(6,7-dimethoxyquinazolin-4-yl)-5-(1-methyl-3-(trifluoromethyl)-1H-pyrazol-4-yl)-3,4-dihydroisoquinolin-1(2H)-one] |  |  | < 0.02 | 25
18 | COc1cc2c(N3CCc4c(cc(Cn5ccnc5)cc4-c4cn(C)nc4C(F)(F)F)C3=O)ncnc2cc1OCc1ccnn1C [Example 26, 7-((1H-Imidazol-1-yl)methyl)-2-(6-methoxy-7-((1-methyl-1H-pyrazol-5-yl)methoxy)quinazolin-4-yl)-5-(1-methyl-3-(trifluoromethyl)-1H-pyrazol-4-yl)-3,4-dihydroisoquinolin-1(2H)-one] |  |  | < 0.02 | 76
19 | CCc1cc2c(N3CCc4c(cc(Cn5ccnc5)cc4-c4cn(C)nc4C(F)(F)F)C3=O)ccnc2c(-n2cccc2)n1 [Example 35, 7-((1H-Imidazol-1-yl)methyl)-2-(6-ethyl-8-(1H-pyrrol-1-yl)-1,7-naphthyridin-4-yl)-5-(1-methyl-3-(trifluoromethyl)-1H-pyrazol-4-yl)-3,4-dihydroisoquinolin-1(2H)-one] |  |  | < 0.02 | 47
20 | CCc1cc(NC(=O)CC2CN(C(=O)C3CCOCC3)C2)c2nccc(N3CCc4c(cc(Cn5ccnc5)cc4-c4cn(C)nc4C(F)(F)F)C3=O)c2c1 [Compound B-233] | < 0.02 | 26 |  | 
21 | COc1cc2c(N3CCc4c(cc(Cn5ccnc5)cc4-c4cn(C)nc4C(F)(F)F)C3=O)ccnc2c(OC)n1 [Example 12, 7-((1H-Imidazol-1-yl)methyl)-2-(6,8-dimethoxy-1,7-naphthyridin-4-yl)-5-(1-methyl-3-(trifluoromethyl)-1H-pyrazol-4-yl)-3,4-dihydroisoquinolin-1(2H)-one] |  |  | < 0.02 | 42
22 | COc1cc(N2C[C@H]3CN(C)C[C@H]3C2)c2nc(C)cc(N3CCc4c(cc(Cn5ccnc5)cc4-c4cn(C)nc4C(F)(F)F)C3=O)c2c1 [Compound B-197] | 0.02 | < 20 |  | 
23 | COc1cc2nncc(N3CCc4c(cc(Cn5ccnc5)cc4-c4cn(C)nc4C(F)(F)F)C3=O)c2cc1OC [Example 49, 7-((1H-Imidazol-1-yl)methyl)-2-(6,7-dimethoxycinnolin-4-yl)-5-(1-methyl-3-(trifluoromethyl)-1H-pyrazol-4-yl)-3,4-dihydroisoquinolin-1(2H)-one] |  |  | < 0.02 | < 20
